From patent publication US9586903B2, “Isoquinoline derivatives” (Hoffmann-La Roche Inc., priority 2013, dated 2017) come the findings set out here.

The assay deals with human embryonic stem cell derived neural stem cells (NSCs). The experiment in a line: Neural stem cell proliferation assay (neurogenesis assay, ATP/CellTiterGlo readout). The following applies: 4 days incubation. Type of assay: cell-based. On the procedure: Neural Stem Cell Proliferation Assay
Neurogenic properties of small molecules are determined based on the proliferation of human embryonic stem cell derived neural stem cells (NSCs) which were derived via a dual smad inhibition as previously described (Chambers, S. M., et al., Highly efficient neural conversion of human ES and iPS cells by dual inhibition of SMAD signaling, Nature biotechnology, 2009. 27(3): p. 275-80.)
Compounds respond is measured by the increase in cells based on ATP levels (Promega:CellTiterGlo®) after an incubation period of 4 days.
NSCs are thawed and expanded over 3 passages. On the 14th day, NSCs are seeded in Polyornithin/Laminin coated 384 well plates at a cell density of 21′000 cells/cm^2 in a media volume of 38 μl.
4 hours after cell seeding, compound solutions are added at a volume of 2 μl. Stock solutions of the compounds (water, 5% DMSO) are diluted to obtain a dose response (11 points, dilution factor is 2), ranging from 8 μM to 8 nM. Controls are run to consistently determine the neurogenic properties of the cells:
Negative (neutral) control is cell culture Media (final DMSO concentration: 0.25%).
1. cell culture Media+100 ng/ml FGF2 (final DMSO concentration: 0.1%)
2. cell culture Media+20 ng/ml EGF (final DMSO concentration: 0.1%)
3. cell culture Media+100 ng/ml Wnt3a (final DMSO concentration: 0.1%)
After 4 days incubation at 37° C., 5% CO2, the amount of ATP per well is quantified. The ATP concentration is proportional to the cell number. ATP is quantified by using the Promega CellTiterGlo® kit. The CellTiterGlo® reagents contain a cell lysis buffer, a thermo stable luciferase (UltraGlo™ recombinant luciferase), magnesium and luciferin. Luciferin reacts with ATP producing oxyluciferin, AMP and light. The luminescence signal is proportional to the ATP content.
The value of negative (neutral) control is determined for each assay plate by taking the average of 16 negative control wells. The neurogenic compound response is calculated for each compound as (compound/Negative Control)*100.
The values of EC150 from the dose response curve are determined for each test compound. The EC150 is the compound concentration at which 150% activity of control (100%) is reached.

[1] abbreviates: Homo sapiens, Neural stem cell, 96 h, Table 1, novel compounds, concentration at which 150% activity of control (100%) is reached.

SMILES strings stand for the structures.

Take `O=C(NCc1ccccc1)c1ccc2cncc(-c3ccc(Cl)cc3)c2c1` [Example 2, N-benzyl-4-(4-chlorophenyl)isoquinoline-6-carboxamide]: the EC (150% of control) under setting [1] was 0.09 µM. Same read-out and setting: with `CC(C)(C)NC(=O)c1ccc2cncc(-c3ccc(Cl)cc3)c2c1` [Example 23, N-tert-Butyl-4-(4-chlorophenyl)isoquinoline-6-carboxamide] the figure was 0.73 µM; with `O=C(NCC(F)(F)F)c1ccc2cncc(-c3ccc(Cl)cc3)c2c1` [Example 14, 4-(4-Chlorophenyl)-N-(2,2,2-trifluoroethyl)isoquinoline-6-carboxamide], 0.05 µM. Still for that read-out and setting: with `CS(=O)(=O)NNC(=O)c1ccc2cncc(-c3ccc(Cl)cc3)c2c1` [Example 25, N′-(4-(4-Chlorophenyl)isoquinoline-6-carbonyl)methanesulfonohydrazide] the figure was 0.02 µM.

The compound `CN(NC(=O)c1ccc2cncc(-c3ccc(Cl)cc3)c2c1)S(C)(=O)=O` [Example 28, N′-(4-(4-Chlorophenyl)isoquinoline-6-carbonyl)-N-methylmethanesulfonohydrazide] came in with an EC (150% of control) under setting [1] of 0.39 µM.

The compound `CN1CCN(C(=O)c2ccc3cncc(-c4ccc(Cl)cc4)c3c2)CC1` [Example 19, (4-(4-Chlorophenyl)isoquinolin-6-yl)(4-methylpiperazin-1-yl)methanone] had an EC (150% of control) under setting [1] of 0.11 µM. Still for that read-out and setting: with `O=C(NCc1ccccn1)c1ccc2cncc(-c3ccc(Cl)cc3)c2c1` [Example 11, 4-(4-Chlorophenyl)-N-(pyridin-2-ylmethyl)isoquinoline-6-carboxamide] the figure was 0.09 µM; with `CC1(CNC(=O)c2ccc3cncc(-c4ccc(Cl)cc4)c3c2)CCC(=O)N1` (stereo not shown) [Example 20, 4-(4-Chlorophenyl)-N-((2-methyl-5-oxopyrrolidin-2-yl)methyl)isoquinoline-6-carboxamide], 0.18 µM.

`CS(=O)(=O)CCNC(=O)c1ccc2cncc(-c3ccc(Cl)cc3)c2c1` [Example 7, 4-(4-Chlorophenyl)-N-(2-(methylsulfonyl)ethyl)isoquinoline-6-carboxamide] yielded an EC (150% of control) under setting [1] of 0.07 µM. Same read-out and setting: next, `O=C(NCc1cccnc1)c1ccc2cncc(-c3ccc(Cl)cc3)c2c1` [Example 8, 4-(4-Chlorophenyl)-N-(pyridin-3-ylmethyl)isoquinoline-6-carboxamide]: 0.08 µM; `CN(CC1CC1)C(=O)c1ccc2cncc(-c3ccc(Cl)cc3)c2c1` [Example 21, 4-(4-Chlorophenyl)-N-(cyclopropylmethyl)-N-methylisoquinoline-6-carboxamide]: 0.21 µM. On the same count and under the same terms, next, `O=C(NC1CC1)c1ccc2cncc(-c3ccc(Cl)cc3)c2c1` [Example 5, 4-(4-Chlorophenyl)-N-cyclopropylisoquinoline-6-carboxamide]: 0.03 µM; `O=C(NC1CCOC1)c1ccc2cncc(-c3ccc(Cl)cc3)c2c1` (stereo not shown) [Example 16, 4-(4-Chlorophenyl)-N-(tetrahydrofuran-3-yl)isoquinoline-6-carboxamide]: 0.76 µM.

As to `CC(C)NC(=O)c1ccc2cncc(-c3ccc(Cl)cc3)c2c1` [Example 15, 4-(4-Chlorophenyl)-N-isopropylisoquinoline-6-carboxamide], the EC (150% of control) under setting [1] turned out to be 0.98 µM. Same read-out and setting: next, `O=C(Nc1ccccc1)c1ccc2cncc(-c3ccc(Cl)cc3)c2c1` [Example 13, 4-(4-Chlorophenyl)-N-phenylisoquinoline-6-carboxamide]: 0.71 µM; `O=C(NCC1CC1)c1ccc2cncc(-c3ccc(Cl)cc3)c2c1` [Example 6, 4-(4-Chlorophenyl)-N-(cyclopropylmethyl)isoquinoline-6-carboxamide]: 0.19 µM; `NC(=O)c1ccc2cncc(-c3ccc(Cl)nc3)c2c1` [Example 32, 4-(6-Chloropyridin-3-yl)isoquinoline-6-carboxamide]: 0.02 µM.

In turn, `Cn1cc(NC(=O)c2ccc3cncc(-c4ccc(Cl)cc4)c3c2)cn1` [Example 26, 4-(4-Chlorophenyl)-N-(1-methyl-1H-pyrazol-4-yl)isoquinoline-6-carboxamide] registered an EC (150% of control) under setting [1] of 0.32 µM. Same read-out and setting: next, `O=C(c1ccc2cncc(-c3ccc(Cl)cc3)c2c1)N1CCOCC1` [Example 18, (4-(4-Chlorophenyl)isoquinolin-6-yl)(morpholino)methanone]: 0.38 µM; `CC(NC(=O)c1ccc2cncc(-c3ccc(Cl)cc3)c2c1)c1cccc(S(C)(=O)=O)c1` (stereo not shown) [Example 27, 4-(4-Chlorophenyl)-N-(1-(3-(methylsulfonyl)phenyl)ethyl)isoquinoline-6-carboxamide]: 0.79 µM. Same read-out and setting: with `O=C(c1ccc2cncc(-c3ccc(Cl)cc3)c2c1)N1CCS(=O)(=O)CC1` [Example 3, [4-(4-Chloro-phenyl)-isoquinolin-6-yl]-(1,1-dioxo-thiomorpholin-4-yl)-methanone] the figure was 0.16 µM; with `CS(=O)(=O)c1ccc(CNC(=O)c2ccc3cncc(-c4ccc(Cl)cc4)c3c2)cc1` [Example 9, 4-(4-chlorophenyl)-N-(4-(methylsulfonyl)benzyl)isoquinoline-6-carboxamide], 0.85 µM; with `O=C(NCCC(F)(F)F)c1ccc2cncc(-c3ccc(Cl)cc3)c2c1` [Example 24, 4-(4-Chlorophenyl)-N-(3,3,3-trifluoropropyl)isoquinoline-6-carboxamide], 0.06 µM. Under setting [1], `COc1ccccc1CNC(=O)c1ccc2cncc(-c3ccc(Cl)cc3)c2c1` [Example 10, 4-(4-Chlorophenyl)-N-(2-methoxybenzyl)isoquinoline-6-carboxamide] registered an EC (150% of control) of 0.09 µM. The same measure, in the same setting: with `O=C(c1ccc2cncc(-c3ccc(Cl)cc3)c2c1)N1CCC(O)C1` (stereo not shown) [Example 22, (4-(4-Chlorophenyl)isoquinolin-6-yl)(3-hydroxypyrrolidin-1-yl)methanone] the figure was 0.28 µM; with `N#Cc1ccc(-c2cncc3ccc(C(N)=O)cc23)cc1` [Example 30, 4-(4-Cyanophenyl)isoquinoline-6-carboxamide], 0.03 µM. `CC(C)(C)CNC(=O)c1ccc2cncc(-c3ccc(Cl)cc3)c2c1` [Example 4, 4-(4-Chloro-phenyl)-isoquinoline-6-carboxylic acid (2,2-dimethyl-propyl)-amide] showed an EC (150% of control) under setting [1] of 0.19 µM. The compound `NC(=O)c1ccc2cncc(-c3ccc(Cl)cc3)c2c1` [Example 33, 4-(4-Chlorophenyl)isoquinoline-6-carboxamide] returned an EC (150% of control) (Table 2, known compounds) of 0.01 µM. `CS(=O)(=O)c1cccc(CNC(=O)c2ccc3cncc(-c4ccc(Cl)cc4)c3c2)c1` [Example 12, 4-(4-Chlorophenyl)-N-(3-(methylsulfonyl)benzyl)isoquinoline-6-carboxamide] displayed an EC (150% of control) under setting [1] of 0.1 µM. The same measure, in the same setting: with `O=C(NCc1ccccc1)c1ccc2cncc(-c3ccncc3)c2c1` [Example 1, N-Benzyl-4-(pyridin-4-yl)isoquinoline-6-carboxamide] the figure was 0.07 µM. As for `NC(=O)c1ccc2cncc(-c3ccc(C(F)(F)F)cc3)c2c1` [Example 34, 4-(4-(Trifluoromethyl)phenyl)isoquinoline-6-carboxamide], the EC (150% of control) (Table 2, known compounds) came to 0.02 µM.

`CC(C)(CO)NC(=O)c1ccc2cncc(-c3ccc(Cl)cc3)c2c1` [Example 17, 4-(4-Chlorophenyl)-N-(1-hydroxy-2-methylpropan-2-yl)isoquinoline-6-carboxamide] returned an EC (150% of control) under setting [1] of 2.5 µM. The compound `NC(=O)c1ccc2cncc(C3=CCOCC3)c2c1` [Example 29, 4-(3,6-Dihydro-2H-pyran-4-yl)isoquinoline-6-carboxamide] registered an EC (150% of control) under setting [1] of 0.14 µM.

`NC(=O)c1ccc2cncc(-c3ccc(Cl)cc3Cl)c2c1` [Example 31, 4-(2,4-Dichlorophenyl)isoquinoline-6-carboxamide] returned an EC (150% of control) under setting [1] of 0.06 µM.
